Data: the supplement of paper PMC12463676, “Small-molecule dissolution of stress granules by redox modulation benefits ALS models” (Nature Chemical Biology, 2025)

Tests used:
potassium arsenate = compound: O=[As]([O-])(O)O.[K+] [potassium arsenate]; assay: thermal stability z-score vs DMSO; higher = more thermally stabilized by treatment; conditions: HeLa; arsenate concentration 1 mM
Protocol: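 Cellular thermal proteome profiling in HeLa cells treated with 1 mM arsenate for 1 h (DMSO pretreatment), heated to ten temperatures (37-66.3 °C). Soluble protein was quantified by TMT mass spectrometry relative to DMSO controls; the thermal stability score was transformed to a z-score; mean of n = 3 experiments.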

lipoamide = compound: NC(=O)CCCCC1CCSS1 [lipoamide]; assay: as above; conditions: HeLa, lipoamide concentration 100 µM
Protocol: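 Cellular thermal proteome profiling in HeLa cells. Cells were treated with 100 µM lipoamide for 1 h, with or without 1 mM arsenate for a further 1 h, then heated to ten temperatures (37-66.3 °C), and soluble protein was quantified by TMT mass spectrometry relative to 0.1% DMSO controls. The thermal stability score (sum of log2 fold changes minus the abundance score) was transformed to a z-score; mean of n = 3 experiments.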

[1] = arsenate co-treatment: 1 mM arsenate 1 h
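Note: each temperature applied for 3 min, abundance score taken as mean log2 fold change at the two lowest temperatures, z-score obtained by mean subtraction and division by SD.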

UniProt O75419, sequence (O75419 whole entry): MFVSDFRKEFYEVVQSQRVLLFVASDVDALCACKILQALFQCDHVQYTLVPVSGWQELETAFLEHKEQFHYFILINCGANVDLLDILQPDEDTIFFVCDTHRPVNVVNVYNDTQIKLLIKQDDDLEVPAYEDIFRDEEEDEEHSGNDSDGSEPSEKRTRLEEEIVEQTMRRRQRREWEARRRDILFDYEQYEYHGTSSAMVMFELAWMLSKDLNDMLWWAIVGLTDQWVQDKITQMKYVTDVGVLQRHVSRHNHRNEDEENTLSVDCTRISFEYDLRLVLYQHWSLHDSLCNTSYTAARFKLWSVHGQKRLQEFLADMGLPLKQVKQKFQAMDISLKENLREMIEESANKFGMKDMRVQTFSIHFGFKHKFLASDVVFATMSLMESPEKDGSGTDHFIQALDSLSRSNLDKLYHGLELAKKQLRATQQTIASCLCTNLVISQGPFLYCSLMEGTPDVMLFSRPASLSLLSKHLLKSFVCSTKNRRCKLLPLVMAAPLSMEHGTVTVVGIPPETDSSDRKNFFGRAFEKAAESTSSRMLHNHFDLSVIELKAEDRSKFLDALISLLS
UniProt P30260, sequence (P30260 whole entry): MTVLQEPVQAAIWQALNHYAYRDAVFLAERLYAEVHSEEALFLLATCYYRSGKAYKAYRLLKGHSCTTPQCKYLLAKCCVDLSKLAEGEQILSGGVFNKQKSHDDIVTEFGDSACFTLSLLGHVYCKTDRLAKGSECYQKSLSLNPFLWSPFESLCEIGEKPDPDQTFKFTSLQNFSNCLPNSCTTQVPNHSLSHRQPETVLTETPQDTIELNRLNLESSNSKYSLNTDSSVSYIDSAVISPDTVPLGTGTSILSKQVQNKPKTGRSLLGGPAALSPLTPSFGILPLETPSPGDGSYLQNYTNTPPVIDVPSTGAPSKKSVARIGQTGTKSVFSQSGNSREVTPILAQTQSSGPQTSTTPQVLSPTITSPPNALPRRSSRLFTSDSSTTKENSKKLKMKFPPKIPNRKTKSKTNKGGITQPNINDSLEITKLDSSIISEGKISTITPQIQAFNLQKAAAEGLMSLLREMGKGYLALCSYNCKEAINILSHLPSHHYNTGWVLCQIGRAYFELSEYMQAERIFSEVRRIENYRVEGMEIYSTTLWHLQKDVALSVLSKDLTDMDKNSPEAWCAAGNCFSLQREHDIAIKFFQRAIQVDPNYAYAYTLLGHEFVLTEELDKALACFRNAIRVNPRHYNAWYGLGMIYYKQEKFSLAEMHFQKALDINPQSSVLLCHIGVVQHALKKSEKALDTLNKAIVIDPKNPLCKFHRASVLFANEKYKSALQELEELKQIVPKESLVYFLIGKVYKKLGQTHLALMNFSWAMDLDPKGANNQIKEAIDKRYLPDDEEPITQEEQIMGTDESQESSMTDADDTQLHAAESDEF
UniProt Q7L3B6, sequence (Q7L3B6 whole entry): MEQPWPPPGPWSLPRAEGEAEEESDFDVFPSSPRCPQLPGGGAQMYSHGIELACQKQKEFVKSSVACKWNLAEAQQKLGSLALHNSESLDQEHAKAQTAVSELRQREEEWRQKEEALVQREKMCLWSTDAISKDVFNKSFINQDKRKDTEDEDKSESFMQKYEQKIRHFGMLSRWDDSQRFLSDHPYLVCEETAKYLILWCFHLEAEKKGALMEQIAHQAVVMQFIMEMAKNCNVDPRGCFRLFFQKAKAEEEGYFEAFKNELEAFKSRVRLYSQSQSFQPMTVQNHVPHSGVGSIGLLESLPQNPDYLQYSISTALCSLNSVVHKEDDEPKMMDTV
UniProt Q9NXV6, sequence (Q9NXV6 whole entry): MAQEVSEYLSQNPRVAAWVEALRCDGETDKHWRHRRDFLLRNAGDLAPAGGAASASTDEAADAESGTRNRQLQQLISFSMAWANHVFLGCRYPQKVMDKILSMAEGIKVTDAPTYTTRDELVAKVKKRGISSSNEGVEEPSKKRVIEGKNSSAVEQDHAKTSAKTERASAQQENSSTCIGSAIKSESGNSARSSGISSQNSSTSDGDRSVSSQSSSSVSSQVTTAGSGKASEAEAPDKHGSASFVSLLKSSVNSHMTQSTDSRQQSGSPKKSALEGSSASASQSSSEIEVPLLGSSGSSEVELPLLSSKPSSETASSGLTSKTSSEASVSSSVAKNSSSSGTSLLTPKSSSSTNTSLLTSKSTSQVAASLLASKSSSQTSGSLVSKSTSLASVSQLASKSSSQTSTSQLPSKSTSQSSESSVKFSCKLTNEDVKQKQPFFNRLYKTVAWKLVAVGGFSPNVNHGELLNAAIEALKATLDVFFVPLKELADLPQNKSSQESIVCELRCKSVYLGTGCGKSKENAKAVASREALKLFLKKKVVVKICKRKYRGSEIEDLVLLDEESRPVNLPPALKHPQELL
UniProt Q00587, sequence (Q00587 whole entry): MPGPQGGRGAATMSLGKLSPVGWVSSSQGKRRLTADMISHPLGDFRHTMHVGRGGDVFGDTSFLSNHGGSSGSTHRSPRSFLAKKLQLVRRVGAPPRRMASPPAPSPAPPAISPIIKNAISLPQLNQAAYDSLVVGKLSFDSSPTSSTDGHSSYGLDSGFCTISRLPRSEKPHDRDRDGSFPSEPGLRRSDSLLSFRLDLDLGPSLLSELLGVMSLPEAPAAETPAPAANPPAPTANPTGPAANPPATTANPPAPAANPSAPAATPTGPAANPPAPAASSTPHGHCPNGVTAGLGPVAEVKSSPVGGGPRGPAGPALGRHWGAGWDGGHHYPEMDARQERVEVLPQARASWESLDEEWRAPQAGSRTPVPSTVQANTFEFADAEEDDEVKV
UniProt Q08722, sequence (Q08722 whole entry): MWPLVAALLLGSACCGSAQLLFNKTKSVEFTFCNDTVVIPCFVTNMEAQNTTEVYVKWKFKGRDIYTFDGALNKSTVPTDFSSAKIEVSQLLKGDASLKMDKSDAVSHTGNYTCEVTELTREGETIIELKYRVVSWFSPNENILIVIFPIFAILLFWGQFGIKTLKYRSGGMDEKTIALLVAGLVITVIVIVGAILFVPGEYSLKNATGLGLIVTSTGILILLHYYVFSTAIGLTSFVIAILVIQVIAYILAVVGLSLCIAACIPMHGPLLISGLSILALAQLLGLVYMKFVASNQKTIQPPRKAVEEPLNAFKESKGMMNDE
UniProt P11802, sequence (P11802 whole entry): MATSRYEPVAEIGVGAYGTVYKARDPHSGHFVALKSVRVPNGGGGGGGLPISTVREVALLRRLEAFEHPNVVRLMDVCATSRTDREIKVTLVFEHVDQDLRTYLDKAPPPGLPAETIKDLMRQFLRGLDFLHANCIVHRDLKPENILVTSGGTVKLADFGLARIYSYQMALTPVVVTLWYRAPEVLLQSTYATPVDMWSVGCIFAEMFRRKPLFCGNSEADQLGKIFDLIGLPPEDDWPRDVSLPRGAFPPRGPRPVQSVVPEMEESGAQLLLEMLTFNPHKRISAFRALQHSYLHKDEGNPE
UniProt O14735, sequence (O14735 whole entry): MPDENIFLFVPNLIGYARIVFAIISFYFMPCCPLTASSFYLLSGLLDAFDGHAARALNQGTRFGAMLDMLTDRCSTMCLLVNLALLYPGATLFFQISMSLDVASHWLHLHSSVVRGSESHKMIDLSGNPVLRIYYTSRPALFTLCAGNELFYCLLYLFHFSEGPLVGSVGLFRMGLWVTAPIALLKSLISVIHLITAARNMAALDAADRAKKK
UniProt Q99618, sequence (Q99618 whole entry): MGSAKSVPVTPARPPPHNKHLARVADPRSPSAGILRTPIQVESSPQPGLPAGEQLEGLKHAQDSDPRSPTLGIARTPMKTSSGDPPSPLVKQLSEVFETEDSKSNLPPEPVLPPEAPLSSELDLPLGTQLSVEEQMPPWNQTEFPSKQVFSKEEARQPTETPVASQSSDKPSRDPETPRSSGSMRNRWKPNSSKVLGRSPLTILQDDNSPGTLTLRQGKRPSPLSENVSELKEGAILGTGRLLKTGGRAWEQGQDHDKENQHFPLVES
UniProt P32970, sequence (P32970 whole entry): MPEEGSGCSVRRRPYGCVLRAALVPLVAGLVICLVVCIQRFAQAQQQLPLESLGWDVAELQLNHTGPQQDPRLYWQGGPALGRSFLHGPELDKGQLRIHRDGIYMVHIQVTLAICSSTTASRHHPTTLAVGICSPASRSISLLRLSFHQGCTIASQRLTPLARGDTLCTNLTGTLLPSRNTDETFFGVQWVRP
UniProt P17676, sequence (P17676 whole entry): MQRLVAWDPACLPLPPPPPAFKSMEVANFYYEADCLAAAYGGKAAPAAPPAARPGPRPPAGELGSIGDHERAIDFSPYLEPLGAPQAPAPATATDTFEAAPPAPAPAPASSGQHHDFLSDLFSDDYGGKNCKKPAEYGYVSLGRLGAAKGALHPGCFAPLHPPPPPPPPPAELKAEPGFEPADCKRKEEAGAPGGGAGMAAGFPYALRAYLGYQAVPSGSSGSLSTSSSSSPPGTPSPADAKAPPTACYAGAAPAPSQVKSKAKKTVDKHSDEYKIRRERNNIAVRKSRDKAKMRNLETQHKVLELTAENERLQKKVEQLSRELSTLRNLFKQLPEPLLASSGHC
UniProt Q00535, sequence (Q00535 whole entry, looked up): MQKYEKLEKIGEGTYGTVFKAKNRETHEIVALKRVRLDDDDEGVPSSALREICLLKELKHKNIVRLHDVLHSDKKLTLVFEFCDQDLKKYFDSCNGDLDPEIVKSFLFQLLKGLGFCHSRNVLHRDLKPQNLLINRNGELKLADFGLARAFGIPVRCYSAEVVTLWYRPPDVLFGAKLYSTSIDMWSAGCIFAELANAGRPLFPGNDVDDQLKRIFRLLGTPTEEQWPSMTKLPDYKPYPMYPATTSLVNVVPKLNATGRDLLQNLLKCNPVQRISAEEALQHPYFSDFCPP
UniProt Q8NHZ8, sequence (Q8NHZ8 whole entry): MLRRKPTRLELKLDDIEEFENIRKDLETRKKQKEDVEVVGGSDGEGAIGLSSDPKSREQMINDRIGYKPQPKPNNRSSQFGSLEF
UniProt O14519, sequence (O14519 whole entry): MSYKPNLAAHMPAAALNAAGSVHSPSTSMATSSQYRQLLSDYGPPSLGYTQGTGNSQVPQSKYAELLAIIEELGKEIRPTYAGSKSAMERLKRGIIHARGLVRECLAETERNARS

Target | thermal stability z-score (potassium arsenate) | thermal stability z-score (lipoamide; [1]) | thermal stability z-score (lipoamide; arsenate co-treatment: none)
CD47 (UniProt Q08722) | 0.869 | 2.42 | 1.31
CD55 (UniProt P08174) | 0.446 | 0.266 | 0.169
CD58 (UniProt P19256) | 0.484 | 0.0858 | 0.705
CD59 (UniProt P13987) | 3.07 | 0.714 | 0.698
CD63 (UniProt P08962) | 0.0332 | 0.764 | 0.402
CD70 (UniProt P32970) | -0.313 | 1.03 | 0.355
CD81 (UniProt P60033) | -0.753 | -0.142 | -0.642
CD97 (UniProt P48960) | 0.472 | 0.325 | 0.346
CD99 (UniProt P14209) | 0.168 | 0.901 | 0.721
CD109 (UniProt Q6YHK3) | 1.06 | -0.877 | -1.01
CD151 (UniProt P48509) | 0.131 | 1.24 | 0.682
CD276 (UniProt Q5ZPR3) | 0.000316 | 0.196 | -0.174
CD320 (UniProt Q9NPF0) | 1.01 | 1.65 | 0.874
CDA (UniProt P32320) | 1.03 | 0.868 | 1
CDAN1 (UniProt Q8IWY9) | -0.113 | -0.217 | -0.235
CDC5L (UniProt Q99459) | -0.167 | 0.945 | 0.573
CDC6 (UniProt Q99741) | -0.258 | -0.0605 | 0.0639
CDC16 (UniProt Q13042) | -0.551 | 0.159 | 0.0509
CDC20 (UniProt Q12834) | -1.51 | -0.124 | -0.245
CDC23 (UniProt Q9UJX2) | -0.726 | -0.546 | -0.315
CDC26 (UniProt Q8NHZ8) | 0.691 | 1.32 | 0.534
CDC27 (UniProt P30260) | -0.522 | 0.122 | 0.0944
CDC34 (UniProt P49427) | 0.0868 | -0.142 | -0.0805
CDC37 (UniProt Q16543) | 0.222 | 0.928 | 0.616

Target | thermal stability z-score (potassium arsenate) | thermal stability z-score (lipoamide; [1]) | thermal stability z-score (lipoamide; arsenate co-treatment: none)
CDC37L1 (UniProt Q7L3B6) | 0.23 | -0.275 | -0.0638
CDC40 (UniProt O60508) | 0.0978 | -0.117 | 0.182
CDC42 (UniProt P60953) | 0.0976 | 0.932 | 0.454
CDC42BPA (UniProt Q5VT25) | 0.379 | 0.504 | 0.561
CDC42BPB (UniProt Q9Y5S2) | -0.221 | -0.57 | -0.124
CDC42EP1 (UniProt Q00587) | 0.213 | -0.844 | -0.776
CDC42EP4 (UniProt Q9H3Q1) | 0.499 | -0.323 | -0.652
CDC42SE1 (UniProt Q9NRR8) | -0.154 | -0.0857 | 0.383
CDC45 (UniProt O75419) | -0.457 | 0.0843 | 0.0302
CDC73 (UniProt Q6P1J9) | 0.234 | 0.521 | 0.541
CDC123 (UniProt O75794) | 3.29 | 0.8 | -0.214
CDCA3 (UniProt Q99618) | -0.233 | 0.196 | 0.0335
CDH10 (UniProt Q9Y6N8) | 1.02 | 0.493 | 0.14
CDIPT (UniProt O14735) | -0.187 | 1.05 | 0.638
CDK1 (UniProt P06493) | 0.246 | 0.163 | -0.0348
CDK2 (UniProt P24941) | 0.48 | 1.12 | 0.288
CDK2AP1 (UniProt O14519) | -0.113 | -0.0893 | -0.224
CDK4 (UniProt P11802) | 0.783 | 1.15 | 1.03
CDK5 (UniProt Q00535) | 0.0671 | -0.0682 | 0.212
CDK5RAP1 (UniProt Q96SZ6) | 0.157 | 0.128 | 0.198
CDK5RAP2 (UniProt Q96SN8) | -0.112 | -0.149 | -0.131
CDK5RAP3 (UniProt Q96JB5) | 0.406 | -0.0376 | 0.162
CDK6 (UniProt Q00534) | 0.123 | -0.218 | 0.136
CDK7 (UniProt P50613) | -0.0106 | -0.000906 | -0.0377

Target | thermal stability z-score (potassium arsenate) | thermal stability z-score (lipoamide; [1]) | thermal stability z-score (lipoamide; arsenate co-treatment: none)
CDK8 (UniProt P49336) | -1.66 | -0.0332 | -0.822
CDK9 (UniProt P50750) | 0.544 | -0.226 | -0.263
CDK12 (UniProt Q9NYV4) | -0.614 | -0.233 | 0.0238
CDK13 (UniProt Q14004) | -0.0661 | 0.155 | -0.0381
CDK16 (UniProt Q00536) | 0.0532 | 0.0459 | -0.3
CDK17 (UniProt Q00537) | -0.0969 | 1.07 | 0.395
CDKAL1 (UniProt Q5VV42) | -0.903 | 1.09 | 0.835
CDKN2A | 0.466 | 0.99 | 1.64
CDKN2AIP (UniProt Q9NXV6) | -0.347 | 0.446 | 0.454
CDR2 (UniProt Q01850) | 0.139 | 0.134 | 0.141
CDR2L (UniProt Q86X02) | -0.419 | 0.891 | 0.86
CDS2 (UniProt O95674) | -0.43 | -0.807 | -0.975
CDV3 (UniProt Q9UKY7) | 0.683 | 0.669 | 0.83
CDYL (UniProt Q9Y232) | 0.0814 | 2.68 | 1.28
CEBPB (UniProt P17676) | -0.856 | -0.261 | -1.23
CEBPZ (UniProt Q03701) | -1.01 | 0.161 | -0.141
CEBPZOS (UniProt A8MTT3) | 0.526 | 0.351 | 0.365
CECR5 (UniProt Q9BXW7) | 0.99 | -0.169 | 0.0959
CELF1 (UniProt Q92879) | -0.593 | -1.1 | -0.66
CELSR2 (UniProt Q9HCU4) | -0.894 | -1.53 | -2.3
CENPE (UniProt Q02224) | 0.013 | 0.141 | 0.088
CENPF (UniProt P49454) | 1.73 | 0.439 | -0.0287
CENPH (UniProt Q9H3R5) | 0.184 | -0.976 | 0.153
